Data from article PMC4758672 (Bioorganic & medicinal chemistry letters, 2015).
Where two headings read alike, the source gives them in different places.

Key:
[1] = molecular target: T1, hmGlu1 (Homo sapiens, UniProt Q13255); experiment: Calcium mobilization mGlu1 PAM assay; assay type: cell-based; conditions: for Fold selective versus mGlu4: mGlu4 EC50 / mGlu1 EC50; for mGlu1 agonism / PAM profile: agonism at concentrations above 10 µM
[2] = molecular target: mGlu5 (Homo sapiens, UniProt P41594); experiment: Activity at mGlu5; assay type: cell-based
mGlu5, sequence (P41594 21-1212): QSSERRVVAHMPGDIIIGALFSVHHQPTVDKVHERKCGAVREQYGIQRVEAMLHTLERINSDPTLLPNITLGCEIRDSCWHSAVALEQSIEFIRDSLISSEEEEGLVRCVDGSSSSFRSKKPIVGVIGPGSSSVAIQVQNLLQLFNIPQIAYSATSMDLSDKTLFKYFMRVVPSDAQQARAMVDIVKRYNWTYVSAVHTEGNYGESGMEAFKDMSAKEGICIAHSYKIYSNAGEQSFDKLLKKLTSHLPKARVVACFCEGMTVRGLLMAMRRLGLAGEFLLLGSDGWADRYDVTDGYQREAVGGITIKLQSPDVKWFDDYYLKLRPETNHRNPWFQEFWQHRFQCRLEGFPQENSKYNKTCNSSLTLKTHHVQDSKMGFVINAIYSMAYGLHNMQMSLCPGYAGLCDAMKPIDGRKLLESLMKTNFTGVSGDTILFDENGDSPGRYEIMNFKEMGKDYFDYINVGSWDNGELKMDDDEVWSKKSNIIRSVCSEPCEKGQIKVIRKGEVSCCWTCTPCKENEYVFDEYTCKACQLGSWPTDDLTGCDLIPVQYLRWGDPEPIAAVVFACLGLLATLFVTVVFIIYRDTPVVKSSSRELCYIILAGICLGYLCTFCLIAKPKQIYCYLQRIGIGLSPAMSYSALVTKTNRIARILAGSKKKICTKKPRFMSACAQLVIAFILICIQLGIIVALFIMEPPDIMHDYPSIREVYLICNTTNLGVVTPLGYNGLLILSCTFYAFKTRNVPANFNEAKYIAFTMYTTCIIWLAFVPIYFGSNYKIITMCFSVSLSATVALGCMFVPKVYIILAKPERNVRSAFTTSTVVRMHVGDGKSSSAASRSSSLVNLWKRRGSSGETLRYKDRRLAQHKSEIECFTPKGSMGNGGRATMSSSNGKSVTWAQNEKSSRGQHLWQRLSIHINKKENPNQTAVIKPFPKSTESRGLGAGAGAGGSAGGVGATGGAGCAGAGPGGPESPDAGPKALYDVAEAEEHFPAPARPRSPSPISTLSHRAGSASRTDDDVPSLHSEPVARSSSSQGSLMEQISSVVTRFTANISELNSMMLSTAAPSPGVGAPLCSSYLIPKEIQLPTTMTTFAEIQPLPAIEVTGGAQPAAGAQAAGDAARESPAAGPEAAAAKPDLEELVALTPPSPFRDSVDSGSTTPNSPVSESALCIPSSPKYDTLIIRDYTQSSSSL

[3] = In vitro predicted hepatic clearance, human hepatic microsomes; assay type: in vitro ADME
[4] = In vitro predicted hepatic clearance, rat hepatic microsomes; assay type: in vitro ADME
[5] = Rat brain homogenate binding; assay type: in vitro ADME
[6] = molecular target: T1, hmGlu1; conditions: cited from earlier work
[7] = human; cited from earlier work
[8] = rat; cited from earlier work
[9] = cited from earlier work

T1 sequence (Q13255 19-1194): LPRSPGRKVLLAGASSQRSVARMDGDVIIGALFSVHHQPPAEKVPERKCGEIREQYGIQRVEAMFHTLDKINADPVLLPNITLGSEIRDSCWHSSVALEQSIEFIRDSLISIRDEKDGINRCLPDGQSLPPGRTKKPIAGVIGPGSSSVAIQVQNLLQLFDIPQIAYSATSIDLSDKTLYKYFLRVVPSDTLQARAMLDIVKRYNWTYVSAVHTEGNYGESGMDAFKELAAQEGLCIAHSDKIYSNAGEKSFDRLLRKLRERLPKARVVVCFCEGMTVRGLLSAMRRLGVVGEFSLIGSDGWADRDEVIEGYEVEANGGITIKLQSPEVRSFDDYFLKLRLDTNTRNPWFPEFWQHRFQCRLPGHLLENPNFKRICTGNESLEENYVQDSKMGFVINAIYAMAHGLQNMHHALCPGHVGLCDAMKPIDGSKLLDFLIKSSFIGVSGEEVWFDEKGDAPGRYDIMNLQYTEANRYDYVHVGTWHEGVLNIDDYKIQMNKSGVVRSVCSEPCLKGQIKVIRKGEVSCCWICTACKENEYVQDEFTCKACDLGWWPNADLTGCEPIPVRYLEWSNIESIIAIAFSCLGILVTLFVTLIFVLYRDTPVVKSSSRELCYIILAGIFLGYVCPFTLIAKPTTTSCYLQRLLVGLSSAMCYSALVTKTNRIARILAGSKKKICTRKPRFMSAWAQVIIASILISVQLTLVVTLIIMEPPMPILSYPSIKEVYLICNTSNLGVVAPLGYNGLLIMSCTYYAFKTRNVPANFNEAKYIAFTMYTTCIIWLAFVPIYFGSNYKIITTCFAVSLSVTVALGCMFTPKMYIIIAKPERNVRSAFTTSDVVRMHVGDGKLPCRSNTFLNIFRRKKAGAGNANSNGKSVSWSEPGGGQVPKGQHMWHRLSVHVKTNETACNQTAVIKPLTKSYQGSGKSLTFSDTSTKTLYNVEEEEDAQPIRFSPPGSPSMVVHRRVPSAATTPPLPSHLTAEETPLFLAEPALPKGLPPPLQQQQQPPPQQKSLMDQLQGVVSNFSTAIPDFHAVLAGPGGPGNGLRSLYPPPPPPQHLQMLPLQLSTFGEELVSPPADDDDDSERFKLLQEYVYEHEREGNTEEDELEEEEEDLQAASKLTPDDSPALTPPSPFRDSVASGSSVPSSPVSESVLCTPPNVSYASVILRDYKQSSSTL

Question: What does the source list for `Cc1ccoc1C(=O)Nc1cnc(N2C(=O)c3cccc(F)c3C2=O)nc1` [11h]?
Answer: mGlu1 versus mGlu4 PAM potency [1]: equipotent; Fold selective versus mGlu4 [1]: >1.88 fold

Question: With `Cc1ccoc1C(=O)Nc1ccc(N2C(=O)c3ccccc3C2=O)cc1F` [12a] as the compound, how does the “mGlu1 agonism / PAM profile” value [1] read?
Answer: The value was “did not show any observable agonistic effect”.

Question: What about the “Fold selective versus mGlu4” value [1] of the same compound?
Answer: The value was greater than 793 fold.

Question: And the “activity at mGlu5” value [2]?
Answer: The value was “no activity”.

Question: What about the “predicted hepatic clearance CLHEP” value [3] of the same compound?
Answer: Its value is 9.65 mL/min/kg.

Question: And the “predicted hepatic clearance CLHEP” value [4]?
Answer: The value was 48.5 mL/min/kg.

Question: What about the fraction unbound [5] of the same compound?
Answer: Its fraction unbound is less than 0.01.

Question: Which results are given for `Cc1ccoc1C(=O)Nc1ccc(N2C(=O)c3ccccc3C2=O)cc1Cl` [12b]?
Answer: mGlu1 agonism / PAM profile [1]: did not show any observable agonistic effect; Fold selective versus mGlu4 [1]: >344 fold; activity at mGlu5 [2]: no activity; predicted hepatic clearance CLHEP [3]: 9.25 mL/min/kg; predicted hepatic clearance CLHEP [4]: 48.7 mL/min/kg; fraction unbound [5]: < 0.01

Question: Which “Fold selective versus mGlu4” value [1] does the source give for `Cc1ccoc1C(=O)Nc1ccc(N2C(=O)c3ccccc3C2=O)cc1` [10a] here?
Answer: The value was greater than 208 fold.

Question: With `Cc1ccoc1C(=O)Nc1ccc(N2C(=O)c3ccccc3C2=O)nc1` [11a] as the compound, how does the “Fold selective versus mGlu4” value [1] read?
Answer: Its value is greater than 25.8 fold.

Question: With `Cc1ccoc1C(=O)Nc1cnc(N2C(=O)c3ccccc3C2=O)nc1` [11e] as the compound, how does the “mGlu1 versus mGlu4 PAM potency” value [1] read?
Answer: The value was “equipotent”.

Question: For `COc1cc(N2C(=O)c3ccccc3C2=O)ccc1NC(=O)c1occc1C` [12e], which “Fold selective versus mGlu4” value [1] is on record?
Answer: Its value is greater than 30.3 fold.

Question: Which results are given for `Cc1ccoc1C(=O)Nc1ccc(N2C(=O)c3cccc(F)c3C2=O)c(Cl)c1` [compound 4]?
Answer: mGlu1 agonism ([6]; at concentrations above 10 µM, previously observed with parent compound): considerable agonism; selectivity versus mGlu4 [6]: 35 fold; free fraction fu [7]: 0.05; free fraction fu [8]: 0.03; Kp (CNS penetration) [9]: 1.02; CLp ([9]; rat PK): 13.3 mL/min/kg
